Measurements from patent US20230380427A1 (priority 2020, published 2023).
Like-named read-outs stand apart in the source and are kept apart here. Marks after values point to notes of the source that are not given here.

Tests used:
Plasmopara viticola = assay: Grapevine leaf disc assay (downy mildew, Peronospora); assay type: in vivo; settings: grapevine leaf discs, 5 days at 23° C.; diseased disk area versus control
Description: Exemplary tests for reduction of Peronospora symptoms were carried out on grapevine leaf discs as follows. Ten leaf discs were first inoculated with prototypes for 20 min and then treated with a spore suspension (20000 sporangia/ml) of the fungus until zoospores were released from the sporangia. Afterwards, leaf disks were placed on water agar plates and incubated for 5 days at 23° C. (16 h light/8 h darkness). Consequently, disease severity was calculated by measurement of the percentage of diseased disk area. Control treatments were included by either using water or by application of the copper-based, commercially available plant protection product Cuprozin.

F. graminearum [1] = assay type: in vivo, Fusarium graminearum; settings: wheat Capo, Lennox, Trappe, Kronjet, ear treated, FHB assessed 21 days after anthesis, versus untreated control
F. graminearum [2] = assay type: in vivo, Fusarium graminearum; settings: wheat Capo; versus control
F. graminearum [3] = assay type: in vivo, Fusarium graminearum; settings: wheat Trappe, ear treated, versus untreated half of plot

With `[Ca+2].[Cl-].[Cl-]` [Prototype G1, Calcium chloride] the “Reduction of Symptoms (Disease Severity %)” value (Plasmopara viticola) was 50.9** %.
With `[Ca+2].[Cl-].[Cl-]` [Prototype W2, Calcium chloride] the “Reduction of Symptoms (Disease incidence %)” value (F. graminearum [1]) was 29%.
`[Cl-].[Cl-].[Mg+2]` [Prototype W3, Magnesium chloride] was tested, and the “Reduction of Symptoms (Disease incidence %)” value (F. graminearum [1]; listed as W3) was “ns” and the “Reduction of Symptoms (Disease incidence %)” value (F. graminearum [1]; listed as magnesium) was “no influence”.
In the case of `O=C([O-])[O-].[Ca+2]` [Prototype W24, Calcium carbonate from natural resources], the “Reduction of Symptoms (%) Disease incidence %” value (F. graminearum [2]) is reported as “ns”, the “Reduction of Symptoms (%) Disease intensity %” value (F. graminearum [2]) is reported as “no significant effect and ns” and the “Reduction of Symptoms (%) Disease severity %” value (F. graminearum [2]) is reported as “ns”.
`O=C([O-])[O-].[Ca+2]` [Prototype W25, Calcium carbonate from natural resources] was tested, and the “Reduction of Symptoms (Disease incidence %)” value (F. graminearum [3]; listed as Calcium carbonate) was 13% and the “Reduction of Symptoms (Disease incidence %)” value (F. graminearum [3]; listed as W25) was 13* %.
In the case of Sodium silicium oxide [Prototype W4], the “Reduction of Symptoms (Disease incidence %)” value (F. graminearum [1]; listed as Silicium) is reported as “no influence” and the “Reduction of Symptoms (Disease incidence %)” value (F. graminearum [1]; listed as W4) is reported as “ns”.
